Experimental data taken from PubChem BioAssay AID2060896 (Molecular Pharmacology Branch, DTP, NCI, 2025).
pIC50: −log10 of the molar value.

Test system: 941728-121-R-J1-PDC complex spheroid viability
Assay: Anticancer human tumor 941728-121-R-J1-PDC patient-derived lung adenocarcinoma cell line growth inhibition [RAS]
Conditions: for pIC50: curve of first compound; for viability, T/C: stronger effect = lower value
Excerpt: RAS pathway inhibitors in Combinations in Complex Spheroids
A high-throughput screen of multi-cell type tumor spheroids was designed to identify active combinations of RAS pathway inhibitors and targeted small molecules. Complex spheroids include a stromal component modeled by human endothelial cells (HUVEC) and fibroblasts modeled by human mesenchymal stem cells (MSCs). The concentration ranges selected for each drug and investigational agent were based upon clinically achievable concentrations if the clinical Cmax of the agent was known.
Compounds. The drugs and investigational agents: abemaciclib (NSC768073), cobimetinib (NSC768068), divarasib (GDC6063, NSC841802), docetaxel (NSC628503), GDC-1971 (RLY-1971, NSC841576), gemcitabine (NSC613327), inavolisib (NSC800729), ipatasertib (NSC767898), KB-0742 (NSC834161), MRTX-1133 (NSC836407), osimertinib (NSC779217), RMC-4630 (NSC839698), RMC-6236 (NSC851965), RMC-6291 (NSC852671), Ro-3306 (NSC812927), sapanisertib (NSC764658), SN-38 (NSC673596), staurosporine (NSC755774), SY5609 (NSC837396), and tovorafenib (DAY101, NSC766906), were obtained from the National Cancer Institute (NCI) Developmental Therapeutics Program Chemical Repository. The FDA-approved anticancer drug set is available from the NCI Developmental Therapeutics Program. […] The stock solutions were prepared in dimethyl sulfoxide (DMSO, Sigma-Aldrich, St. Louis, MO, cat. D2650) at 800-fold the tested concentration and stored at -70 degrees C prior to their use. All drugs and investigational agents were tested over a range starting from a high concentration at or near the clinical Cmax and decreasing in half-log increments. If the clinical Cmax for an agent had not been determined, the highest concentration tested was 10 microM.
Cell Culture. All cells were maintained in an incubator at 37 degrees C and 5% CO2 with 95% humidity. The PDC lines were cultured according to standard operating procedures established by the NCI PDMR. All PDCs were thawed and cultured in Matrigel-coated flasks prepared with a working solution of 1X Ham's F-12 nutrient mix, without supplementation (Invitrogen, Waltham, MA, cat. 11765054), 100 U/mL penicillin-streptomycin (Invitrogen, cat. 15140122), and 2.5% Matrigel (Corning Inc., Corning, NY, cat. 354248) for the first three passages. The 362531-283-R-J2-PDC and 782815-120-R-J1-PDC lines were cultured in 6C/Colon 1B media, which includes advanced DMEM/F-12 (Thermo Fisher Scientific, cat. 12634028), 10 mM HEPES (Thermo Fisher Scientific, cat. 15630080), 1X GlutaMAX supplement (Thermo Fisher Scientific, cat. 35050061), 0.1 mg/mL primocin (InvivoGen, San Diego, CA, cat. ant-pm-2), 10% defined fetal bovine serum, heat inactivated (HyClone Laboratories Inc., Logan, UT, cat. SH30070.03HI), 50% L-WRN conditioned media (ATCC, cat. CRL-3276), 1.25 mM N-Acetyl-L-cysteine (Sigma-Aldrich, cat. A9165), 10 mM nicotinamide (Sigma-Aldrich, cat. N0636), 1X B-27 supplement (Thermo Fisher Scientific, cat. 17504044), 1X N-2 supplement (Thermo Fisher Scientific, cat. 17502048), 50 ng/mL human EGF (Thermo Fisher Scientific, cat. PHG0311), and 10 microM Y-27632 dihydrochloride (Tocris Bioscience, cat. 1254). The K12877-001-R-J1-PDC line was cultured in 6I media, which includes all 6C/Colon 1B media plus 10 ng/mL human FGF-10 (PeproTech, cat. 100-26), 1 ng/mL human FGF-2 (PeproTech, cat. 100-18B), 1 µM prostaglandin E2 (Tocris Bioscience, cat. 2296), […] hydrocortisone (Sigma-Aldrich, cat. H4001), and […] bovine insulin (Sigma-Aldrich, cat. I6634). The K86415-001-R-J1-PDC line was cultured in 6D media, which includes all 6C/Colon 1B media components minus the L-WRN conditioned media. The 485176-168-R4-J1-PDC was cultured in PANC media, which includes all 6C/Colon 1B media plus 100 ng/mL human FGF-10 (PeproTech, cat. 100-26), 500 nM SB-431542 (Selleckchem, cat. S1067), and 10 nM gastrin (Tocris Bioscience, cat. 3006). […]

[1] = second compound 0.0316 µM, first compound 0.0316 µM
[2] = second compound 0.0316 µM, first compound 0.1 µM
[3] = second compound 0.0316 µM, first compound 0.316 µM
[4] = second compound 0.0316 µM, first compound 1 µM
[5] = second compound 0.0316 µM, first compound 3.16 µM
[6] = second compound 0.0316 µM, first compound 10 µM
[7] = second compound 0.1 µM, first compound 0.0316 µM
[8] = second compound 0.1 µM, first compound 0.1 µM
[9] = second compound 0.1 µM, first compound 0.316 µM
[10] = second compound 0.1 µM, first compound 1 µM
[11] = second compound 0.1 µM, first compound 3.16 µM
[12] = second compound 0.1 µM, first compound 10 µM
[13] = second compound 0.316 µM, first compound 0.0316 µM
[14] = second compound 0.316 µM, first compound 0.1 µM
[15] = second compound 0.316 µM, first compound 0.316 µM
[16] = second compound 0.316 µM, first compound 1 µM
[17] = second compound 0.316 µM, first compound 3.16 µM
[18] = second compound 0.316 µM, first compound 10 µM
[19] = second compound 1 µM, first compound 0.0316 µM
[20] = second compound 1 µM, first compound 0.1 µM
[21] = second compound 1 µM, first compound 0.316 µM
[22] = second compound 1 µM, first compound 1 µM
[23] = second compound 1 µM, first compound 3.16 µM
[24] = second compound 1 µM, first compound 10 µM
[25] = second compound 3.16 µM, first compound 0.0316 µM
[26] = second compound 3.16 µM, first compound 0.1 µM
[27] = second compound 3.16 µM, first compound 0.316 µM
[28] = second compound 3.16 µM, first compound 1 µM
[29] = second compound 3.16 µM, first compound 3.16 µM
[30] = second compound 3.16 µM, first compound 10 µM
[31] = second compound 10 µM, first compound 0.0316 µM
[32] = second compound 10 µM, first compound 0.1 µM
[33] = second compound 10 µM, first compound 0.316 µM
[34] = second compound 10 µM, first compound 1 µM
[35] = second compound 10 µM, first compound 3.16 µM
[36] = second compound 10 µM, first compound 10 µM
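Further: spheroids exposed to compounds for 7 days before readout.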
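Wherever viability, T/C is given: 100% = DMSO vehicle control viability.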

With `CC1(O)CCCC1n1c(=O)c(C(F)F)cc2cnc(NC3CCN(S(C)(=O)=O)CC3)nc21` (stereo unspecified) + C#Cc1c(F)ccc2cc(O)cc(-c3ncc4c(N5CC6CCC(C5)N6)nc(OCC56CCCN5CC(F)C6)nc4c3F)c12 the pIC50 (second compound 0.0316 µM) was 5.17, the pIC50 (second compound 0.1 µM) was 5.17 and the pIC50 (second compound 0.316 µM) was < 5.00. For the same compound, the pIC50 (second compound 1 µM) was > 7.50, the pIC50 (second compound 3.16 µM) was > 7.50 and the pIC50 (second compound 10 µM) was > 7.50. The viability, T/C [1] was 69.8%, the viability, T/C [2] was 75% and the viability, T/C [3] was 71.9%. It also gave a viability, T/C [4] of 80.1%, a viability, T/C [5] of 81.7% and a viability, T/C [6] of 36.7%. It also gave a viability, T/C [7] of 69.4%, a viability, T/C [8] of 72% and a viability, T/C [9] of 62.6%. The viability, T/C [10] was 68.7%, the viability, T/C [11] was 75.7% and the viability, T/C [12] was 40%. The viability, T/C [13] was 56.2%, the viability, T/C [14] was 51.5% and the viability, T/C [15] was 51.2%. The viability, T/C [16] was 65.6%, the viability, T/C [17] was 65% and the viability, T/C [18] was 39.9%. For the same compound, the viability, T/C [19] was 44.2%, the viability, T/C [20] was 38.9% and the viability, T/C [21] was 46.9%. The viability, T/C [22] was 50.3%, the viability, T/C [23] was 55.3% and the viability, T/C [24] was 36%. It also gave a viability, T/C [25] of 30.1%, a viability, T/C [26] of 33% and a viability, T/C [27] of 36.5%. The viability, T/C [28] was 36.9%, the viability, T/C [29] was 38.5% and the viability, T/C [30] was 28.6%. For the same compound, the viability, T/C [31] was 25.6%, the viability, T/C [32] was 26.6% and the viability, T/C [33] was 28%. It also gave a viability, T/C [34] of 28.1%, a viability, T/C [35] of 28% and a viability, T/C [36] of 24%.
`CCN1CCN(Cc2ccc(Nc3ncc(F)c(-c4cc(F)c5nc(C)n(C(C)C)c5c4)n3)nc2)CC1` + C#Cc1c(F)ccc2cc(O)cc(-c3ncc4c(N5CC6CCC(C5)N6)nc(OCC56CCCN5CC(F)C6)nc4c3F)c12 was tested, and the pIC50 (second compound 0.0316 µM) was < 6.00, the pIC50 (second compound 0.1 µM) was < 6.00 and the pIC50 (second compound 0.316 µM) was < 6.00. For the same compound, the pIC50 (second compound 1 µM) was > 8.50, the pIC50 (second compound 3.16 µM) was > 8.50 and the pIC50 (second compound 10 µM) was > 8.50. The viability, T/C (second compound 0.0316 µM, first compound 0.00316 µM) was 75.4%, the viability, T/C (second compound 0.0316 µM, first compound 0.01 µM) was 70.4% and the viability, T/C [1] was 58%. It also gave a viability, T/C [2] of 49%, a viability, T/C [3] of 58% and a viability, T/C [4] of 59.7%. The viability, T/C (second compound 0.1 µM, first compound 0.00316 µM) was 71.4%, the viability, T/C (second compound 0.1 µM, first compound 0.01 µM) was 62% and the viability, T/C [7] was 52.9%. The viability, T/C [8] was 46.7%, the viability, T/C [9] was 55.9% and the viability, T/C [10] was 68.9%. For the same compound, the viability, T/C (second compound 0.316 µM, first compound 0.00316 µM) was 55.6%, the viability, T/C (second compound 0.316 µM, first compound 0.01 µM) was 56.8% and the viability, T/C [13] was 38.3%. For the same compound, the viability, T/C [14] was 45.2%, the viability, T/C [15] was 51% and the viability, T/C [16] was 57.3%. For the same compound, the viability, T/C (second compound 1 µM, first compound 0.00316 µM) was 38.2%, the viability, T/C (second compound 1 µM, first compound 0.01 µM) was 34.7% and the viability, T/C [19] was 31.4%. The viability, T/C [20] was 35.5%, the viability, T/C [21] was 41.7% and the viability, T/C [22] was 50.1%. The viability, T/C (second compound 3.16 µM, first compound 0.00316 µM) was 28.8%, the viability, T/C (second compound 3.16 µM, first compound 0.01 µM) was 26.4% and the viability, T/C [25] was 31.3%. For the same compound, the viability, T/C [26] was 25.3%, the viability, T/C [27] was 30.9% and the viability, T/C [28] was 36.2%. For the same compound, the viability, T/C (second compound 10 µM, first compound 0.00316 µM) was 23.5%, the viability, T/C (second compound 10 µM, first compound 0.01 µM) was 20.9% and the viability, T/C [31] was 21.9%. For the same compound, the viability, T/C [32] was 19.8%, the viability, T/C [33] was 18.4% and the viability, T/C [34] was 16.5%.
In the case of `C[C@@H](NC(=O)c1ncnc(N)c1Cl)c1ncc(C(=O)Nc2cc(C(F)(F)F)c(Cl)cn2)s1` + C#Cc1c(F)ccc2cc(O)cc(-c3ncc4c(N5CC6CCC(C5)N6)nc(OCC56CCCN5CC(F)C6)nc4c3F)c12, the pIC50 (second compound 0.0316 µM) was 5.15, the pIC50 (second compound 0.1 µM) was 5.15 and the pIC50 (second compound 0.316 µM) was 5.57. For the same compound, the pIC50 (second compound 1 µM) was > 7.50, the pIC50 (second compound 3.16 µM) was > 7.50 and the pIC50 (second compound 10 µM) was > 7.50. The viability, T/C [1] was 107%, the viability, T/C [2] was 102% and the viability, T/C [3] was 108%. The viability, T/C [4] was 94.4%, the viability, T/C [5] was 72.5% and the viability, T/C [6] was 40%. The viability, T/C [7] was 102%, the viability, T/C [8] was 109% and the viability, T/C [9] was 103%. It also gave a viability, T/C [10] of 102%, a viability, T/C [11] of 76.3% and a viability, T/C [12] of 38.9%. The viability, T/C [13] was 69.7%, the viability, T/C [14] was 79.6% and the viability, T/C [15] was 69.6%. The viability, T/C [16] was 60.2%, the viability, T/C [17] was 49.2% and the viability, T/C [18] was 37.1%. For the same compound, the viability, T/C [19] was 46.2%, the viability, T/C [20] was 48.5% and the viability, T/C [21] was 45.3%. It also gave a viability, T/C [22] of 39.4%, a viability, T/C [23] of 38.4% and a viability, T/C [24] of 29.4%. The viability, T/C [25] was 30%, the viability, T/C [26] was 32.5% and the viability, T/C [27] was 28.2%. It also gave a viability, T/C [28] of 26.5%, a viability, T/C [29] of 30.2% and a viability, T/C [30] of 28.1%. It also gave a viability, T/C [31] of 24.4%, a viability, T/C [32] of 25.2% and a viability, T/C [33] of 25.3%. The viability, T/C [34] was 26.2%, the viability, T/C [35] was 25% and the viability, T/C [36] was 21.7%.
